# Data reported in patent US20250283049A1, “AGENT FOR CULTURING ORGANOID IN ABSENCE OF EXTRACELLULAR MATRIX” (KEIO UNIVERSITY, priority 2022, published 2025).
# What was measured:
# [1] = test system: human small intestine-derived organoid; experiment: Culture of organoids in presence of Matrigel and LATS kinase inhibitor; cell number by ATP (CellTiter-Glo 3D); assay type: cell-based; conditions: presence of Matrigel; 10 mM Lats-IN as printed; 7 days of culture; vs control without Lats-IN
# Method: A human small intestine-derived organoid and a human large intestine-derived organoid were cultured in the presence of an inhibitor of LATS1 kinase and LATS2 kinase, Lats-IN-1 (CAS No. 1424635-83-5, hereinafter sometimes referred to as “Lats-IN” and also referred to as “TRULI”), and their dynamics were observed.
# The human small intestine-derived organoid and the human large intestine-derived organoid used were those established from tissues derived from patients with gastrointestinal tumors who provided informed consent, in accordance with an ethical research plan approved by the Ethics Committee of the Keio University School of Medicine.
# Each organoid was dissociated into single cells using TrypLE Express (Thermo Fisher Scientific Inc.) to obtain a cell suspension. […]
# The cell proliferation was measured by measuring adenosine triphosphate (ATP) using a commercially available kit (product name “CellTiter-Glo 3D,” Promega Corporation).
# The upper left panel of FIG. 2 is a photograph of a control (Ctrl) human small intestine-derived organoid cultured in the absence of Lats-IN, and the upper center panel of FIG. 2 is a photograph of a human small intestine-derived organoid cultured in the presence of Lats-IN. […] The vertical axis of the graph represents luminescence intensity (relative value) indicating the amount of ATP present.
# [2] = test system: human large intestine-derived organoid; experiment: Culture of organoids in absence of Matrigel with LATS kinase inhibitor; cell number by ATP (CellTiter-Glo 3D); assay type: cell-based
# Method: In this experimental example, a human small intestine-derived organoid and human large intestine-derived organoid established in the presence of Matrigel (registered trademark) were cultured in the absence of Matrigel (registered trademark) and in the presence of a LATS kinase inhibitor (final concentration: 10 μM), and their dynamics were observed. The procedure was the same as in Experimental Example 1, except that each organoid was cultured in the absence of Matrigel (registered trademark).
# The lower left panel of FIG. 3 is a photograph of a control (Ctrl) human large intestine-derived organoid cultured in the absence of Lats-IN, and the lower center panel of FIG. 3 is a photograph of a human large intestine-derived organoid cultured in the presence of Lats-IN. The scale bar is 100 μm. The lower right panel of FIG. 3 is a graph showing the results of measuring cell number in the human large intestine-derived organoids cultured in the presence of the control (Ctrl) and Lats-IN. The vertical axis of the graph represents luminescence intensity (relative value) indicating the amount of ATP present. […]
# FIG. 8 presents graphs showing the results of measuring the proliferation of the human small intestine-derived and human large intestine-derived organoids in the absence of Lats-IN (Ctrl), in the presence of Lats-IN (Lats-IN), in the presence of Lats-IN and MYF01-37 (Lats-IN+MYF), and in the presence of MYF01-37 (MYF). The cell proliferation was measured by measuring ATP using a commercially available kit (product name “CellTiter-Glo 3D,” Promega Corporation). The vertical axis of the graph represents luminescence intensity (relative value) indicating the amount of ATP present. […]
# FIG. 26 presents graphs showing the results of measuring cell number in each organoid after 6 days of culture by measuring ATP using a commercially available kit (product name “CellTiter-Glo 3D,” Promega Corporation). The vertical axis of the graph represents luminescence intensity (relative value) indicating the amount of ATP present.
structure (smiles),measurement,setting,value
O=C(N=c1sccn1Cc1ccccc1)c1c[nH]c2ncccc12 [Lats-IN],"cell proliferation (cell number per well, ATP luminescence)",[1],significantly activated
same,cell proliferation (ATP luminescence),"[2]; Experimental Example 5, Lats-IN 10 μM alone",activated
same,"cell proliferation (cell number, ATP luminescence)","[2]; final concentration 10 μM, 7 days of culture, vs control",significantly activated
